Data from US20230295152A1 (SENDA BIOSCIENCES, INC., priority 2019, published 2023).

Columns and labels:
CYP2D6 = target: T1, CYP2D6 (Homo sapiens, UniProt P10635); test: CYP Inhibition Assay in human liver microsomes, CYP2D6; format: in vitro ADME; conditions: pH 7.4
T1 construct: from tissue; host or cells: human liver microsomes (HLM)
Procedure: Stock solutions of test compounds were prepared in DMSO at the concentrations of 10 mM. Stock solution was diluted to 2 mM with acetonitrile. The final concentration of test compounds was 10 μM. For the stock solution preparation, if the positive control could not be well dissolved in the mixture of DMSO and acetonitrile (1:4) at the highest concentration, another mixture of acetonitrile and DMSO, the mixture of acetonitrile and H2O or DMSO will be used to dissolve the compound.
The substrate solutions are stored in a −20° C. freezer and warmed to room temperature prior to use.
Preparation of Phosphate Buffer (100 mmol/L, pH 7.4): To prepare the Solution A, 7.098 g of disodium hydrogen phosphate were weighed out and added into 500 mL of pure water, then sonicated to dissolve the content. To prepare the Solution B, 3.400 g of potassium dihydrogen phosphate were weighed out and added into 250 mL of pure water, then sonicated to dissolve the content. Solution A was placed on a stirrer and slowly Solution B was added into Solution A until the pH reached 7.4. Preparation of 10 mmol/L NADPH Solution: NADPH was dissolved at 8.334 mg/mL in phosphate buffer; the solution was freshly prepared prior to use.
The master solution was prepared according to Table 45. The incubation was carried out in 96 deep well plates. The following volumes were dispensed into each well of the incubation plate: 179 μL of the substrate and HLM mixture in phosphate buffer, 1 μL of the compound working solution, or vehicle (mixture of DMSO and acetonitrile (1:4)). The incubation plate was placed into the water bath and pre-warmed at 37° C. for 15 minutes before the reactions was started by the addition of 20 μL of 10 mmol/L NADPH solution in phosphate buffer. After the addition of NADPH, the incubation plate was incubated at 37° C. for corresponding time. The assay was performed in duplicate.
The reaction was quenched by the addition of 1.5 volume (300 μL) of cold acetonitrile containing 3% formic acid and internal standards (200 nM Labetalol, 200 nM Alprazolam and 200 nM tolbutamide). The plate was centrifuged at 3,220 g for 40 minutes. 100 μL of the supernatant was transferred to a new plate. The supernatant was diluted with 100 μL pure water. The samples were mixed well and analyzed using UPLC/MS/MS.
Data Analysis: The automatic peak integration areas are checked for all the samples. The Analyte Peak Area and Internal Standard Peak Area are exported into excel spreadsheet. The inhibition of each P450 enzyme in human liver microsomes is measured as the percentage decrease in the activity of marker metabolite formation compared to non-inhibited controls (=100% activity).
The percentage of remaining activity was calculated as follows:
Area Ratio=Peak Area Analyte/Peak Area Internal Standard Remaining Activity (%)=Area Ratio test compound/Area Ratio vehicle*100% Inhibition %=100-Remaining Activity (%)

hERG channels = target: T2, hERG channels (Homo sapiens, UniProt Q12809); test: hERG Inhibition Assay, patch clamp in hERG stably expressed HEK 293 cell line; format: cell-based; conditions: read-out: hERG channel: IC50
T2 construct: host or cells: HEK 293
T2 sequence (Q12809 whole entry): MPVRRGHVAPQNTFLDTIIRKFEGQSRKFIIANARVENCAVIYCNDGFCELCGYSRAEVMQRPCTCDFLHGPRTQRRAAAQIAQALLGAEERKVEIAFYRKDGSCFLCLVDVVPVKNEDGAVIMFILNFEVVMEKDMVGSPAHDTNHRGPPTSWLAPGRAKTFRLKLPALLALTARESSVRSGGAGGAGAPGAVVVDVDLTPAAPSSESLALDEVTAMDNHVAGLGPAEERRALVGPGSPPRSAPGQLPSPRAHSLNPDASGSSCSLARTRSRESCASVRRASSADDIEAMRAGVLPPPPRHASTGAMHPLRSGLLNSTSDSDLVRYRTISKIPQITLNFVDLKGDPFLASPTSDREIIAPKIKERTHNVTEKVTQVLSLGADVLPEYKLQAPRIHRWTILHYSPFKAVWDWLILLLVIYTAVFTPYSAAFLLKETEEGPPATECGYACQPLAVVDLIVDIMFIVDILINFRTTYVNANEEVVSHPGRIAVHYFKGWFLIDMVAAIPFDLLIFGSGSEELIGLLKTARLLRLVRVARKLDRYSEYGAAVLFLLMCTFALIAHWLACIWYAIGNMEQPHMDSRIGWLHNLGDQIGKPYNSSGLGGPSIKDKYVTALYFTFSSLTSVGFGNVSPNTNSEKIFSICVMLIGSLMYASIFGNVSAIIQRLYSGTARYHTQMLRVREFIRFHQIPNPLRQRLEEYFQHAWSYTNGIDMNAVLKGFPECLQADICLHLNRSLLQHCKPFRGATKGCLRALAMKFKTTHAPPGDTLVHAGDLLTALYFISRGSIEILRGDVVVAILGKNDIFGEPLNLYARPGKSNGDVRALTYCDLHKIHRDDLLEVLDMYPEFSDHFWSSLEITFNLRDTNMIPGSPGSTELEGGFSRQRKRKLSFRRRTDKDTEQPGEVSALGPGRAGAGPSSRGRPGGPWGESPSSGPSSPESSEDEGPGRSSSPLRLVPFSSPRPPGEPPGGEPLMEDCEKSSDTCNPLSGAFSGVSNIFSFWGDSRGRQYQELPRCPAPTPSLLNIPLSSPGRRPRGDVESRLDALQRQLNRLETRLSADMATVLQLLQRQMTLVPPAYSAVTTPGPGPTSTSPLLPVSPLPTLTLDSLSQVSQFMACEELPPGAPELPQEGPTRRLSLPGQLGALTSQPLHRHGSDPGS
Procedure: hERG stably expressed HEK 293 cell line (Cat #K1236) was purchased from Invitrogen. The cells are cultured in 85% DMEM, 10% dialyzed FBS, 0.1 mM NEAA, 25 mM HEPES, 100 U/mL Penicillin-Streptomycin and 5 μg/mL Blasticidin and 400 μg/mL Geneticin. Cells are split using TrypLE™ Express about three times a week and maintained between ˜40% to ˜80% confluence. Before the assay, the cells were onto the coverslips at 5×10^5 cells/per 6 cm cell culture dish and induced with doxycycline at 1 μg/mL for 48 hours.
External solution (in mM): 132 NaCl, 4 KCl, 3 CaCl2), 0.5 MgCl2, 11.1 glucose, and 10 HEPES (pH adjusted to 7.35 with NaOH). Internal solution (in mM): 140 KCl, 2 MgCl2, 10 EGTA, 10 HEPES and 5 MgATP (pH adjusted to 7.35 with KOH). Working solution preparation for test compound: test compounds were initially prepared in DMSO with final concentration of 10 mM as stock solution. Stock solution of each compound was serial-diluted by ratio of 1:3 with DMSO to prepare additional 3 intermediate solutions including 3.33, 1.11 and 0.37 mM.
Before performing the hERG assay, the working solutions were prepared by dilution of 10, 3.33, 1.11, and 0.37 mM intermediate solutions in 1000 folds using extracellular solution, while 30 μM working solution was prepared by 333.333-folds dilution of 10 mM DMSO stock. so that the final concentration of working solution was 30, 10, 3.33, 1.11 and 0.37 μM. The final DMSO concentration in working solutions was maintained in range of 0.1-0.3% (v/v).
Experimental procedure: the coverslip was removed from the cell culture dish and placed it on the microscope stage in bath chamber. A desirable cell was located using the ×10 objective. The tip of the electrode was located under the microscope using the ×10 objective by focusing above the plane of the cells. Once the tip was in focus, the electrode was advanced downwards towards the cell using the coarse controls of the manipulator, while simultaneously moving the objective to keep the tip in focus. When directly over the cell, the fine controls of the manipulator were used to approach the surface of the cell in small steps, by using the ×40 objective. Gentle suction was applied through the side-port of the electrode holder to form a gigaohm seal.
Cfast was used to remove the capacity current that is in coincidence with the voltage step. The whole cell configuration was obtained by applying repetitive, brief, strong suction until the membrane patch has ruptured. membrane potential was set to −60 mV at this point to ensure that hERG channels were not open. The spikes of capacity current was then cancelled using the Cslow on the amplifier.
Holding potential was set to −90 mV for 500 ms; current was recorder at 20 kHz and filtered at 10 kHz. Leaking current was tested at −80 mV for 500 ms.
The hERG current was elicited by depolarizing at +30 mV for 4.8 seconds and then the voltage was taken back to −50 mV for 5.2 seconds to remove the inactivation and observe the deactivating tail current. The maximum amount of tail current size was used to determine hERG current amplitude. Current was recorded for 120 seconds to assess current stability. Only stable cells with recording parameters above threshold were proceeded with further drug administrations. Vehicle control was applied to the cells to establish the baseline. […] For dose response testing, 5 doses of test compound was applied to the cells cumulatively from low to high concentrations. In order to ensure the good performance of cultured cells and operations, the positive control, Dofetilide, with 5 doses was also used to test the same batch of cells.
The following criteria were used to determine data acceptability: initial seal resistance>1 GΩ; leak currents<50% of the control peak tail currents at any time; the peak tail amplitude>300 pA; membrane resistance Rm>500 MΩ; access resistance (Ra)<15 MΩ; apparent run-down of peak current<2.5% per min. […]

T1 sequence (P10635 whole entry): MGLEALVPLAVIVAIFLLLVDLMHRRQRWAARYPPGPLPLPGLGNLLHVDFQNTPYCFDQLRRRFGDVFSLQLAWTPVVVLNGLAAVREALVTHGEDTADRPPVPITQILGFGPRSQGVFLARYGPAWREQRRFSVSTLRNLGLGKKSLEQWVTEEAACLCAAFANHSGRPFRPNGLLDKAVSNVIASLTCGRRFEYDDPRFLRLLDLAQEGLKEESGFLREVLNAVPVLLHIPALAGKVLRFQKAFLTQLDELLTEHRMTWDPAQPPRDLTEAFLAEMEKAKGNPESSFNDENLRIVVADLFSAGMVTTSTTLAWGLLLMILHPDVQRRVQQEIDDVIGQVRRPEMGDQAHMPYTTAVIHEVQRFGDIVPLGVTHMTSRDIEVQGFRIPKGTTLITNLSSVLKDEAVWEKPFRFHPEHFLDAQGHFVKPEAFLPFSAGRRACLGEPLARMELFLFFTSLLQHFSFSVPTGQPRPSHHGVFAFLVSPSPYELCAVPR

Row | SMILES | inhibition at 10 µM (CYP2D6) [%] | IC50 (hERG channels) [µM]
1 | C[C@@H](CO)n1cnc2c(-c3cccc(F)c3)nc(-c3ccc(Cl)cc3)cc2c1=O [Compound 7] | 6.78 | > 30
2 | CC(C)(O)Cn1cnc2c(-c3cccnc3)nc(-c3ccc(C(F)(F)F)nc3)cc2c1=O [Compound 9] | 7.19 | 12.1
3 | C[C@@H](CO)n1cnc2c(-c3cccnc3)nc(-c3ccc(C(F)(F)F)nc3)cc2c1=O [Compound 12] | 8.45 | > 10
4 | CC(C)(O)Cn1cnc2c(-c3cccnc3)nc(-c3ccc(C(F)(F)F)cc3)cc2c1=O [Compound 16] | 15.6 | 4.31
5 | CC(C)(O)Cn1cnc2c(-c3cccnc3)nc(-c3ccc(Cl)cc3)cc2c1=O [Compound 18] | 12.1 | 5.28
6 | C[C@H](n1cnc2c(-c3cnn(C)c3)nc(-c3ccc(Cl)cc3)cc2c1=O)C(C)(C)O [Compound 30] | 11.2 | > 30
7 | C[C@@H](CO)n1cnc2c(-c3cccnc3)nc(-c3ccc(C(F)(F)F)cn3)cc2c1=O [Compound 46, (S)-3-(1-hydroxypropan-2-yl)-8-(pyridin-3-yl)-6-(5-(trifluoromethyl)pyridin-2-yl)pyrido[3,4-d]pyrimidin-4(3H)-one] | 7.43 | 8.63
8 | Cn1cc(-c2nc(-c3ccc(C(F)(F)F)nc3)cc3c(=O)n(CC(C)(C)O)cnc23)cn1 [Compound 60] | – | > 30
9 | O=c1c2cc(-c3ccc(Cl)cc3)nc(-c3cccnc3)c2ncn1[C@H]1COC[C@@H]1O [Compound 125, 6-(4-chlorophenyl)-3-((3S,4R)-4-hydroxytetrahydrofuran-3-yl)-8-(pyridin-3-yl)pyrido[3,4-d]pyrimidin-4(3H)-one] | 20.6 | 7.67
10 | CC(C)(O)Cn1cnc2c(-n3ccnc3)nc(-c3ccc(C(F)(F)F)cn3)cc2c1=O [Compound 160, 3-(2-hydroxy-2-methylpropyl)-8-(1H-imidazol-1-yl)-6-(5-(trifluoromethyl)pyridin-2-yl)pyrido[3,4-d]pyrimidin-4(3H)-one] | – | 11.5

Further lines, with some results ahead:

Row | inhibition at 10 µM (CYP2D6) [%] | SMILES | IC50 (hERG channels) [µM]
11 | 8.96 | C[C@@H](CO)n1cnc2c(-c3cnn(C)c3)nc(-c3ccc(Cl)cc3)cc2c1=O [Compound 27] | > 10
12 | 10.9 | C[C@@H](CO)n1cnc2c(-c3cnn(C)c3)nc(-c3ccc(C(F)(F)F)nc3)cc2c1=O [Compound 68] | > 30
13 | 7.27 | C[C@@H](CO)n1cnc2c(-c3cccnc3)nc(-c3ccc(C4CC4)nc3)cc2c1=O [Compound 74] | 4.84
14 | 8 | O=c1c2cc(-c3ccc(C(F)(F)F)nc3)nc(-c3cccnc3)c2ncn1[C@@H]1COC[C@H]1O [Compound 79] | > 30
15 | 8.7 | Cn1cc(-c2nc(-c3ccc(C(F)(F)F)cn3)cc3c(=O)n(CC(C)(C)O)cnc23)cn1 [Compound 103, 3-(2-hydroxy-2-methylpropyl)-8-(1-methyl-1H-pyrazol-4-yl)-6-(5-(trifluoromethyl)pyridin-2-yl)pyrido[3,4-d]pyrimidin-4(3H)-one] | > 10
16 | 2.73 | CC(C)(O)Cn1cnc2c(-c3cccnc3)nc(-c3ccc(C(F)(F)F)cn3)cc2c1=O [Compound 105] | 11.8
